Laboratory results from PubChem BioAssay AID623906 (Vanderbilt Specialized Chemistry Center, 2012).

Target: Metabotropic glutamate receptor 4 (Rattus norvegicus) (UniProt P31423)
Experiment: PubChem AID 623906
Conditions: rat mGlu4 cells, thallium flux, glutamate CRC fold shift, at 10 µM, stronger effect = higher value

Chain of Metabotropic glutamate receptor 4 (Rattus norvegicus) (P31423 whole entry, looked up): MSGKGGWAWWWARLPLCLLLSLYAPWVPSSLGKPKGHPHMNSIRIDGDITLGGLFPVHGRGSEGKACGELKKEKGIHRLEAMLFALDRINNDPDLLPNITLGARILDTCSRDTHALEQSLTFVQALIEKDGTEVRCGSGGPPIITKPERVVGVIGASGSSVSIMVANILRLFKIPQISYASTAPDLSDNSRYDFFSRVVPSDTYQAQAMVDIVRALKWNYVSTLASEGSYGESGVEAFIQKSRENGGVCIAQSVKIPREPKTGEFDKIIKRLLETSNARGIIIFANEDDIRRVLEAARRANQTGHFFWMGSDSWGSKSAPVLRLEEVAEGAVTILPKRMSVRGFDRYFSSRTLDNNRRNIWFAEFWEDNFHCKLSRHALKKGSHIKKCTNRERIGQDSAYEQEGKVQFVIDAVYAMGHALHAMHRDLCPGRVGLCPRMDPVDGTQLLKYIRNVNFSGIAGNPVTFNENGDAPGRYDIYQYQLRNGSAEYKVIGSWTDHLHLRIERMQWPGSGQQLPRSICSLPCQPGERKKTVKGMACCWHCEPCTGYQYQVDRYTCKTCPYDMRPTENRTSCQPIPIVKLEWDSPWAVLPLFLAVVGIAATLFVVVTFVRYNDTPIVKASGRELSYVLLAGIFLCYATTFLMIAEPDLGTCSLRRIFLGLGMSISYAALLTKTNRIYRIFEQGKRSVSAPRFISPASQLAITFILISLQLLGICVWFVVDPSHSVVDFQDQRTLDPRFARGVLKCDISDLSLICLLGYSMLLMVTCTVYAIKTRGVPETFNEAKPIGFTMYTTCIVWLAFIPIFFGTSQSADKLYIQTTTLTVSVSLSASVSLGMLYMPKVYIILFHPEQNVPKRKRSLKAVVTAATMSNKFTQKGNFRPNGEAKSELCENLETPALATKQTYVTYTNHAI

fold shift: 16.5 | glutamate max response (glutamate max with compound): 96.9%
SMILES: O=C(Nc1cccc(Cl)c1)c1ccccn1
